From article PMC6691761, “Potential multifunctional agents with anti-hepatoma and anti-inflammation properties by inhibiting NF-кB activation” (Journal of Enzyme Inhibition and Medicinal Chemistry, 2019)

Assays:
[1] = system: human breast cancer cells (MCF-7); assay: Cytotoxicity, MTT assay, MCF-7; format: cell-based
Description: (§1) Compounds 83–102 were screened against human neoplastic cell lines, such as human breast cancer cells (MCF-7), human colon cancer cells (HCT116), human lung carcinoma cells (A549), human gastric adenocarcinoma cells (SGC7901), human liver hepatocellular carcinoma cell line (HepG2), human cervical carcinoma cells (HeLa), human acute mononuclear granulocyte leukaemia (THP-1), and human normal hepatic cell line (LO2) using modified MTT assay. All the cells were obtained from the American Type Culture Collection (ATCC, Manassas, VA). The cells were cultured in DMEM or 1640. Positive controls (Doxorubicin (DOX) and Curcumin) and BAPs were initially dissolved in dimethyl sulphoxide (DMSO). Experimental concentration of DMSO was always 0.1% (v/v). The concentrations of BAPs and positive controls were 50, 20, 10, 5, 2.5, 1, 0.5, 0.1, 0.05, and 0.01 μg/mL.
(§2) The cells (1 × 10^4 cells/well) were seeded in a 96-well plate and incubated for 24 h. Cells treated with serial concentrations of drugs were incubated for another 24 h. After the media removed, 20 μL of MTT (5 mg/mL) solution was added and incubated for 4 h at 37 °C. The MTT solution was removed and then 150 μL of DMSO was added. The optical density was measured with a multi-well plate reader (TECAN, Mӓnnedorf, Switzerland) at 570 nm. The results are expressed as a decrease in the cell viability (%) in comparison to untreated controls. The concentration of each compound was examined in triplicate, and the IC50 values are expressed in Table 1.

[2] = system: human colon cancer cells (HCT116); assay: Cytotoxicity, MTT assay, HCT116; format: cell-based
Description: as §1, §2

[3] = system: human gastric adenocarcinoma cells (SGC7901); assay: Cytotoxicity, MTT assay, SGC7901; format: cell-based
Description: as §1, §2

[4] = system: human cervical carcinoma cells (HeLa); assay: Cytotoxicity, MTT assay, HeLa; format: cell-based
Description: as §1, §2

HepG2 cells = assay: Apoptosis assay, annexin V staining, flow cytometry; format: cell-based, human; conditions: 2.0 μM, 24 h
Experimental: After treated with BAP 96 (1.0, 2.0, and 4.0 μM) and DMSO for 24 h. HepG2 cells were washed and added with 500 μL of Binding Buffer, 5 μL of Annexin V-EGFP and 5 μL of Propidiumlodide and mix (BD Biosciences, San Jose, CA) according to the manufacturer’s instruction. The mixed solution was gently vortexed and incubated in the dark at RT for 15 min. The results were detected by flow cytometry (BD FACS Calibur, San Jose, CA) within 1 h.

[5] = system: p-p65 in TNF-α-stimulated HepG2 cells; assay: TNF-α-stimulated phosphorylation of p65 in HepG2 cells; format: cell-based, human; conditions: HepG2, 1.0, 2.0, and 4.0 μM
Experimental: The HepG2 cells were treated with BAP 96 at different concentrations (1.0, 2.0, and 4.0 µM) for 3 h, and washed twice by PBS. The cells were lysed and the extracted proteins of cell lysates were separated by 10% SDS-PAGE gel electrophoresis, then transferred onto polyvinylidene fluorides membranes. The membranes were probed with antibodies and visualized using an enhanced chemiluminescence (ECL) detection kit.
It is known that NF-κB has been implicated in the crossroad of inflammation and cancer[25]^,[26]. In our previous study, some BAPs (such as 23 and 67) could inhibit NF-κB activation by inhibiting the phosphorylation of NF-κB (P65) and IκB[13]^,[14]. Herein, it is an urgent to resolve whether 96 has the same mechanism of action as 23 and 67. Therefore, the RAW264.7 cells were pretreated with LPS, and then treated with different concentrations (1.0, 2.0, 4.0 μM) of 96. […] Similarly, the HepG2 cells were pretreated with TNF-α, then treated with different concentrations (1.0, 2.0, and 4.0 μM) of 96.

HepG2 xenografts [6] = assay: HepG2 xenografts growth in nude mice; format: in vivo, Balb/c nude mice
Experimental: (§3) The HepG2 cells xenografts were established using the Balb/c nude mice (female, 7-week-old, 17–19 g, n = 30) (Shanghai Laboratory Animal Center, Shanghai Shi, China) were used to investigate the anti-hepatoma effect of 96. Animal experiments were reviewed and approved by the Binzhou Medical University Experimental Animal Committee. Briefly, HepG2 cells (1 × 10^7/0.2 ml PBS/mouse) were inoculated subcutaneously. Three days after the inoculation, the mice were randomly divided into five groups: the saline treated group (Control), 96 (0.2 mg/kg) group, 96 (1.0 mg/kg) treated group, 96 (5.0 mg/kg) treated group, and DOX (1.0 mg/kg) treated group. 96 were dissolved in saline containing 1% of DMSO and administered intraperitoneally every 2 d for 20 days. DOX was also administered intraperitoneally every 2 d for 20 d. The body weight and HepG2 xenografts volumes were recorded from the day of treatment, and xenografts volumes were calculated using the equation: tumour volume = length×(width)[2]×π/6. At the end of the experiment, mice were sacrificed and the xenografts were obtained for western blotting, HE staining and immunohistochemistry staining.

[7] = system: BAX expression in HepG2 xenografts; assay: Western blot, BAX in HepG2 xenografts; format: in vivo, Balb/c nude mice; conditions: 0.2, 1.0 and 5.0 mg/kg
Experimental: as §3
Western blotting was performed to detect the expression of Bcl-2, Bax and C-caspase-3 in HepG2 xenografts. Fresh HepG2 xenografts tissues were lysed and the obtained proteins were processed as the protein obtained from the HepG2 cells.

HepG2 xenografts [8] = assay: HE staining of HepG2 xenografts; format: in vivo, Balb/c nude mice
Experimental: as §3
The HepG2 xenografts tissues were embedded using the paraffin, and sectioned for HE staining and immunohistochemistry staining. HE staining was performed routinely. The immunohistochemistry staining carried out as following. Briefly, the processed sections were incubated with the primary antibodies: Bcl-2 and TNF-α (NOVUS BIOLOGICALS) at 4 °C overnight. After washing, the anti-rabbit peroxidase-conjugated secondary antibody (Sigma-Aldrich, St. Louis, MO) was incubated for 1 h at RT. After washing with PBS, the cells were visualized using the 3,3'-diaminobenzidine (DAB) solution under the light microscope. The cell images were taken using a light microscopy (Olympus, Tokyo, Japan).

[9] = quotient of IC50 towards LO2 cells

CN1CC(=Cc2cccc(N=Cc3cc(Br)ccc3O)c2)C(=O)C(=Cc2ccccc2F)C1 [Compound 96]
IC50 ([1]; Homo sapiens, MCF7, MTT, 24 h): 2500 ± 200 nM
MCF-7 SI (selectivity index) [1, 9]: 8.0
IC50 ([2]; Homo sapiens, HCT-116, MTT, 24 h): 2500 ± 100 nM
HCT116 SI (selectivity index) [2, 9]: 8.0
IC50 ([3]; Homo sapiens, SGC-7901, MTT, 24 h): 2400 ± 800 nM
SGC7901 SI (selectivity index) [3, 9]: 8.3
IC50 ([4]; Homo sapiens, HeLa, MTT, 24 h): 2100 ± 800 nM
HeLa SI (selectivity index) [4, 9]: 9.5
Apoptosis rate of HepG2 cells (HepG2 cells): 24.4%
Phosphorylation of p65 induced by TNF-α [5]: dose-dependent downward trend
Growth of HepG2 xenografts (HepG2 xenografts [6]; 0.2 mg/kg intraperitoneally every 2 d for 20 days): slightly decreased the growth of HepG2 xenografts
Growth of HepG2 xenografts (HepG2 xenografts [6]; 1.0 mg/kg intraperitoneally every 2 d for 20 days): slightly decreased the growth of HepG2 xenografts
Growth of HepG2 xenografts (HepG2 xenografts [6]; 5.0 mg/kg intraperitoneally every 2 d for 20 days): significantly inhibited the growth of HepG2 xenografts
Expression of BAX in HepG2 xenografts [7]: significantly increased in a dose-dependent manner
Fracted cells, HE staining (HepG2 xenografts [8]; 96 5.0 mg/kg, DOX 1.0 mg/kg): a plenty of fracted cells
Histopathological change of cell nucleus, HE staining (HepG2 xenografts [8]; HepG2 xenografts, versus model group): made the HepG2 cell nucleus wrinkled
